Results from ChEMBL document CHEMBL5338827, “Evolution and Discovery of Matrine Derivatives as a New Class of Anti-Hepatic Fibrosis Agents Targeting Ewing Sarcoma Breakpoint Region 1 (EWSR1)” (J Med Chem, 2023).
Activity calls are given as the source filed them.

Experiments:
Rattus norvegicus [1] = test: Anti-hepatic fibrosis activity in bile duct ligation rat model assessed as reduction in bile TBiL level at 100 mg/kg, po administered for 14 days; assay type: functional; conditions: time 14 day
Rattus norvegicus [2] = test: Anti-hepatic fibrosis activity in bile duct ligation rat model assessed as reduction in serum TBA level at 100 mg/kg, po administered for 14 days; assay type: functional; conditions: time 14 day
Rattus norvegicus [3] = test: Anti-hepatic fibrosis activity in bile duct ligation rat model assessed as reduction in ALP level at 100 mg/kg, po administered for 14 days; assay type: functional; conditions: time 14 day
[4] = target: Collagen alpha-1(I) chain (Homo sapiens, UniProt P02452); test: Inhibition of COL1A1 (unknown origin) expressed in human LX2 cells at 40 uM measured for 24 hrs relative to control; assay type: cell-based
LX-2 [5] = test: Anti-hepatic fibrosis activity in human LX2 cells assessed as inhibition of TGF-beta1 induced COL1A1 mRNA expression at 20 uM incubated for 24 hrs by qRT-PCR analysis; assay type: functional, cell-based
LX-2 [6] = test: Anti-hepatic fibrosis activity in human LX2 cells assessed as inhibition of TGF-beta1 induced MMP-2 mRNA expression at 20 uM incubated for 24 hrs by qRT-PCR analysis; assay type: functional, cell-based
LX-2 [7] = test: Anti-hepatic fibrosis activity in human LX2 cells assessed as inhibition of TGFbeta1-induced COL1A1 protein expression at 20 uM incubated for 24 hrs by western blot analysis; assay type: functional, cell-based
LX-2 [8] = test: Anti-hepatic fibrosis activity in human LX2 cells assessed as inhibition of TGFbeta1-induced alpha-SMA protein expression at 20 uM incubated for 24 hrs by western blot analysis; assay type: functional, cell-based
LX-2 [9] = test: Anti-hepatic fibrosis activity in human LX2 cells assessed as inhibition of TGFbeta1-induced MMP-2 protein expression at 20 uM incubated for 24 hrs by western blot analysis; assay type: functional, cell-based
LX-2 [10] = test: Anti-fibrosis effect in human LX2 cells assessed as reduction in TGFbeta1-induced fibronectin protein expression at 10 to 20 uM measured for 24 hrs; assay type: functional, cell-based; conditions: dose 10-20 µM
LX-2 [11] = test: Anti-fibrosis effect in human LX2 cells assessed as reduction in TGFbeta1-induced integrin subunit alpha-V protein expression at 10 to 20 uM measured for 24 hrs; assay type: functional, cell-based; conditions: dose 10-20 µM
LX-2 [12] = test: Anti-fibrosis effect in human LX2 cells assessed as reduction in TGFbeta1-induced MMP-2 mRNA expression at 10 to 20 uM measured for 24 hrs; assay type: functional, cell-based; conditions: dose 10-20 µM
HSC-T6 = test: Anti-fibrosis effect in HSC-T6 cells assessed as reduction in TGFbeta1-induced MMP-2 protein expression measured for 24 hrs; assay type: functional, cell-based; conditions: Rattus norvegicus, dose 2.5-20 µM
Rattus norvegicus [13] = test: Anti-hepatic fibrosis activity in bile duct ligation rat model assessed as reduction collagen accumulation at 100 mg/kg, po administered for 14 days; assay type: functional, organism-based; conditions: time 14.0 day
Rattus norvegicus [14] = test: Anti-hepatic fibrosis activity in bile duct ligation rat model assessed as reduction in MMP2 mRNA expression at 100 mg/kg, po administered for 14 days by qRT-PCR analysis; assay type: functional, organism-based; conditions: time 14.0 day
Mus musculus [15] = test: Anti-hepatic fibrosis activity in MDR2 knockout liver injury mouse model assessed as reduction in COL1A1 protein expression at 100 mg/kg, po administered once a day for 4 weeks by Western blot analysis; assay type: functional, organism-based
Rattus norvegicus [16] = test: Anti-hepatic fibrosis activity in bile duct ligation rat model assessed as reduction in TGFB1 protein expression at 100 mg/kg, po administered for 14 days by Western blot analysis; assay type: functional, organism-based; conditions: time 14.0 day
Rattus norvegicus [17] = test: Anti-hepatic fibrosis activity in bile duct ligation rat model assessed as reduction in MMP2 protein expression at 100 mg/kg, po administered for 14 days by Western blot analysis; assay type: functional, organism-based; conditions: time 14.0 day
Rattus norvegicus [18] = test: Anti-hepatic fibrosis activity in bile duct ligation rat model assessed as reduction in bile duct proliferation at 100 mg/kg, po administered for 14 days by Immunofluorescence analysis; assay type: functional, organism-based; conditions: time 14.0 day
Rattus norvegicus [19] = test: Anti-hepatic fibrosis activity in bile duct ligation rat model assessed as reduction in alpha-SMA positive cells in liver at 100 mg/kg, po administered for 14 days by Immunofluorescence analysis; assay type: functional, organism-based; conditions: time 14.0 day
Rattus norvegicus [20] = test: Anti-hepatic fibrosis activity in bile duct ligation rat model assessed as reduction in LRAT positive cells in liver at 100 mg/kg, po administered for 14 days by Immunofluorescence analysis; assay type: functional, organism-based; conditions: time 14.0 day
Mus musculus [21] = test: Anti-hepatic fibrosis activity in MDR2 knockout liver injury mouse model assessed as reduction in LDH level at 100 mg/kg, po administered once a day for 4 weeks (reference value: 1080.83+/-182.40 U/L); assay type: functional
Mus musculus [22] = test: Anti-hepatic fibrosis activity in MDR2 knockout liver injury mouse model assessed as reduction in serum TBA level at 100 mg/kg, po administered once a day for 4 weeks (reference value: 59.04+/-22.38 micromol/L); assay type: functional
Mus musculus [23] = test: Anti-hepatic fibrosis activity in MDR2 knockout liver injury mouse model assessed as reduction in ACTA2 mRNA expression at 100 mg/kg, po administered once a day for 4 weeks by qRT-PCR analysis; assay type: functional, organism-based
Mus musculus [24] = test: Anti-hepatic fibrosis activity in MDR2 knockout liver injury mouse model assessed as reduction in TGFbeta1 protein expression at 100 mg/kg, po administered once a day for 4 weeks by Western blot analysis; assay type: functional, organism-based
Mus musculus [25] = test: Anti-hepatic fibrosis activity in MDR2 knockout liver injury mouse model assessed as reduction in CTGF protein expression at 100 mg/kg, po administered once a day for 4 weeks by Western blot analysis; assay type: functional, organism-based
Mus musculus [26] = test: Anti-hepatic fibrosis activity in MDR2 knockout liver injury mouse model assessed as reduction in collagen deposition at 100 mg/kg, po administered once a day for 4 weeks by H and E staining analysis; assay type: functional, organism-based
[27] = target: T1, RNA-binding protein EWS (Homo sapiens) (UniProt Q01844); test: Induction of EWSR1 degradation in human LX2 cells at 20 uM measured upto 32 hrs in presence of cycloheximide; assay type: cell-based
T1 sequence (whole entry): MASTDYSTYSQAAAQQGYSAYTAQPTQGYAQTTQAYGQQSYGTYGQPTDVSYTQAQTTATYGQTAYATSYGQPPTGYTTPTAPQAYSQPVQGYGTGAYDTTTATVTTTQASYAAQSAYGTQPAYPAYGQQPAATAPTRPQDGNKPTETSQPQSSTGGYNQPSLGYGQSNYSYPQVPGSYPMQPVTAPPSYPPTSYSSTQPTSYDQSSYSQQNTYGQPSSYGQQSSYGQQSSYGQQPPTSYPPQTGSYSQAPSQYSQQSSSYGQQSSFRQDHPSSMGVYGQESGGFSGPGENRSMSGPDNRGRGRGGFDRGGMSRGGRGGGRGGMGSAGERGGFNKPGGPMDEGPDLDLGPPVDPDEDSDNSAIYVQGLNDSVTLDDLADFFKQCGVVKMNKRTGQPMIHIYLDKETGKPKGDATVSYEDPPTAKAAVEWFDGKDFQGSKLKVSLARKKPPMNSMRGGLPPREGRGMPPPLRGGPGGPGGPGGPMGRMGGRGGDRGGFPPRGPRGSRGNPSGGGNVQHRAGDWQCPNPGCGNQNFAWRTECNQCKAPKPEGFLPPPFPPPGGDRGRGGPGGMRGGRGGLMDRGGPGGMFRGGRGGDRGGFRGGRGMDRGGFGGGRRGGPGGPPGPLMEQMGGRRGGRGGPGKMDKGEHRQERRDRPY

Sequence of Collagen alpha-1(I) chain (P02452 whole entry): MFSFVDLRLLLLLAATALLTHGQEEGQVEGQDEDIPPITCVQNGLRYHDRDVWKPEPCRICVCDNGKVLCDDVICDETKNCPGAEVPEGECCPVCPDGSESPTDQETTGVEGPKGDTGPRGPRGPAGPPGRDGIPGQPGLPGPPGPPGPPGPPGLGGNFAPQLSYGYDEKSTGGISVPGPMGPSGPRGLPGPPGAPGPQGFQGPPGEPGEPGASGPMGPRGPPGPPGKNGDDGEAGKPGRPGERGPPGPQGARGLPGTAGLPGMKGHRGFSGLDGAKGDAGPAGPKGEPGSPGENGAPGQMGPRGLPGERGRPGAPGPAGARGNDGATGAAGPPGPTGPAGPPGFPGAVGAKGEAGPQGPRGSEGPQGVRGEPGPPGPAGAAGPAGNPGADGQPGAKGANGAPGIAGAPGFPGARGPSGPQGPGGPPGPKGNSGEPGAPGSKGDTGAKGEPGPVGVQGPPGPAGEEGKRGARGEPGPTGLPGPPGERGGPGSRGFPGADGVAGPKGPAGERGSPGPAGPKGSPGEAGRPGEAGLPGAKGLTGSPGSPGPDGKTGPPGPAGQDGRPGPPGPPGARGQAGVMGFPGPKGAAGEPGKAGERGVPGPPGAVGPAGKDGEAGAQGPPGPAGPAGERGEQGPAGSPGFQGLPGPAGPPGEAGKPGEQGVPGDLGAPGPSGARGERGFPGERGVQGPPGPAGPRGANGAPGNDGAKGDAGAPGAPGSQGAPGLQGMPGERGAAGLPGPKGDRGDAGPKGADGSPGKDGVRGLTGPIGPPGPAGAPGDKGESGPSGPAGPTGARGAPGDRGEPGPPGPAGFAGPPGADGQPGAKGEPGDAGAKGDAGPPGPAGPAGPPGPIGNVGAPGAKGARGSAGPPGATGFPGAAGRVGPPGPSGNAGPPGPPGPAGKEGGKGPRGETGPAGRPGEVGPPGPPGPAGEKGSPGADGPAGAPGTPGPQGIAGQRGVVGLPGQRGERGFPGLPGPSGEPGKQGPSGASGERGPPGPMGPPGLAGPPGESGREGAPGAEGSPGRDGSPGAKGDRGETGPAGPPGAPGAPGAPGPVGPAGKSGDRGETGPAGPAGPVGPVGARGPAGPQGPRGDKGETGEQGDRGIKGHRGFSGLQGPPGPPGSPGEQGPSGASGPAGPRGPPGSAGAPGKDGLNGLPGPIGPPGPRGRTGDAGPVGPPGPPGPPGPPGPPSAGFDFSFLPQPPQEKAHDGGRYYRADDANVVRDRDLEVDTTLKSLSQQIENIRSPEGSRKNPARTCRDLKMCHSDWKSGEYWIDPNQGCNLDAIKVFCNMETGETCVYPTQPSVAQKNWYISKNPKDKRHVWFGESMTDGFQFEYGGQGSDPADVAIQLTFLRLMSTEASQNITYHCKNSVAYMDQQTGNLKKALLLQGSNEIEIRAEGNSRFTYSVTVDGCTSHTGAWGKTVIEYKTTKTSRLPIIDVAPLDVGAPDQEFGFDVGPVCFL

CCCC[C@@H]1[C@H]2CCCN3CCC[C@@H](CN1C(=O)Nc1c(CC)cccc1CC)[C@@H]23
29.18 µmol/L: Activity (Mus musculus [22])
173 µmol/L: Activity (Rattus norvegicus [2])
inactive: Activity [27]
375 U/L: Activity (Rattus norvegicus [3])
884 U/L: Activity (Mus musculus [21])
active: Activity (LX-2 [5]) | Activity (LX-2 [6]) | Activity (LX-2 [7]) | Activity (LX-2 [8]) | Activity (LX-2 [9]) | Activity (LX-2 [10]) | Activity (LX-2 [11]) | Activity (LX-2 [12]) | Activity (HSC-T6) Dose-Dependent Effect | Activity (Rattus norvegicus [13]) | Activity (Rattus norvegicus [14]) | Activity (Mus musculus [15]) | Activity (Rattus norvegicus [16]) | Activity (Rattus norvegicus [17]) | Activity (Rattus norvegicus [18]) | Activity (Rattus norvegicus [19]) | Activity (Rattus norvegicus [20]) | Activity (Mus musculus [23]) | Activity (Mus musculus [24]) | Activity (Mus musculus [25]) | Activity (Mus musculus [26])
4.91 µmol/L: Activity (Rattus norvegicus [1])
98.8%: inhibition [4]
